Data: the NIST ThermoML archive (doi:10.1016/j.jct.2012.06.023)

Experiment: xn = mol fraction of the nth substance listed
Conditions: for surface tension liquid-gas: Wilhelmy plate; for viscosity: 101 kPa, Liquid, Concentric cylinders viscometry

CCCCCCCO [heptan-1-ol] + CN(C)C=O
Conditions	surface tension liquid-gas, 298.15 K [mN/m]	surface tension liquid-gas, 303.15 K [mN/m]	surface tension liquid-gas, 308.15 K [mN/m]	surface tension liquid-gas, 313.15 K [mN/m]	viscosity, 298.15 K [mPa·s]	viscosity, 303.15 K [mPa·s]	viscosity, 308.15 K [mPa·s]	viscosity, 313.15 K [mPa·s]
x2 = 0	26.47	25.38	24.33	23.5	5.944	5.069	4.333	3.726
x2 = 0.1852	27.06	25.94	24.87	24.01	3.662	3.061	2.599	2.21
x2 = 0.3466	27.51	26.35	25.25	24.34	2.48	2.044	1.734	1.465
x2 = 0.4928	27.98	26.77	25.64	24.69	1.77	1.452	1.238	1.048
x2 = 0.6004	28.74	27.52	26.38	25.41	1.432	1.183	1.021	0.8722
x2 = 0.6878	29.48	28.25	27.1	26.11	1.224	1.026	0.898	0.7775
x2 = 0.7679	30.53	29.32	28.17	27.17	1.079	0.9233	0.8218	0.7462
x2 = 0.8369	31.64	30.44	29.3	28.3	0.9874	0.8807	0.7949	0.7165
x2 = 0.8984	32.86	31.7	30.57	29.57	0.918	0.8403	0.7775	0.7082
x2 = 0.951	34.06	32.93	31.82	30.82	0.8665	0.8038	0.7541	0.6934

CCCCCO [pentan-1-ol] + CN(C)C=O
Conditions	surface tension liquid-gas, 298.15 K [mN/m]	surface tension liquid-gas, 303.15 K [mN/m]	surface tension liquid-gas, 308.15 K [mN/m]	surface tension liquid-gas, 313.15 K [mN/m]	viscosity, 298.15 K [mPa·s]	viscosity, 303.15 K [mPa·s]	viscosity, 308.15 K [mPa·s]	viscosity, 313.15 K [mPa·s]
x2 = 0	24.55	23.6	22.54	21.94	3.5	3.051	2.664	2.335
x2 = 0.0793	24.71	23.72	22.64	22	2.973	2.585	2.259	1.98
x2 = 0.2866	25.53	24.43	23.31	22.57	1.863	1.608	1.414	1.24
x2 = 0.4261	26.4	25.25	24.11	23.3	1.395	1.205	1.069	0.9427
x2 = 0.5048	27.02	25.85	24.69	23.84	1.241	1.076	0.962	0.8525
x2 = 0.6254	28.21	27.01	25.84	24.94	1.069	0.939	0.8498	0.7611
x2 = 0.6638	28.68	27.48	26.31	25.4	1.021	0.9012	0.8193	0.7366
x2 = 0.7952	30.84	29.66	28.51	27.56	0.9068	0.8182	0.7558	0.6895
x2 = 0.8706	32.34	31.19	30.05	29.08	0.8572	0.797	0.7501	0.6882
x2 = 0.9363	33.8	32.67	31.56	30.58	0.8373	0.783	0.7386	0.6836
